Laboratory results from PubChem BioAssay (NCI).
Values joined by “and” are separate entries in the source; they are usually repeats but may differ in a detail not shown here. Identical values can stand only once.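 Protocol summary: plate cells (96-well), add compound at 5 concentrations, incubate 48 h, interpolate endpoints linearly. Here, GI50 denotes the concentration required for 50% inhibition of growth. TGI: total growth inhibition.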

Key:
Experiment in all cases: growth of human tumour cells (NCI), 48 h
[1] = system: HOP-18 NSCLC
[2] = system: M19-MEL melanoma
[3] = system: DMS 114 small cell lung
[4] = system: SNB-78 CNS
[5] = system: RXF-631 renal

| SMILES | TGI [1] [µM] | TGI [2] [µM] | TGI [3] | TGI [4] [µM] | TGI [5] [µM] | GI50 [2] [µM] | GI50 [5] [µM] | GI50 [3] [µM] | GI50 [4] [µM] |
| --- | --- | --- | --- | --- | --- | --- | --- | --- | --- |
| C[N+]1=C(c2cccnc2/C=N/O)OCC1(C)C | > 100 | > 100 | > 100 µM | > 100 | – | – | – | – | – |
| O=C(Nc1cccc(C(F)(F)F)c1)C(=O)C(C(=O)c1ccc(Cl)c(Cl)c1)C1OC(=O)c2ccccc21 (stereo not drawn) | > 100 | 54 | 78.6 µM | > 100 | > 100 | – | – | – | – |
| CCCCn1c(-c2ccccc2)cs/c1=N\N=C1C=C(C(C)(C)C)C(=O)C(C(C)(C)C)=C1 | – | > 100 | > 100 µM | – | > 100 | – | – | – | – |
| CCOC(=O)/C=C/n1c2ccccc2c(=O)c2cc(OC)ccc21 | > 100 | > 100 | > 100 µM | – | > 100 | – | – | – | – |
| O=C1NC(=O)C(C(=O)C(=O)Nc2cc(Cl)ccc2Cl)C(=O)N1 | – | > 100 | > 100 µM | > 100 | > 100 | – | – | – | – |
| Cc1ccc2nc(N)[nH]c(=O)c2c1Sc1ccncc1 | > 100 | > 100 | > 100 µM | > 100 | – | – | – | – | – |
| N#C/C(=C\c1ccc(O)c(O)c1)c1c(C#N)c(N)nn1-c1ccccc1 | 29.1 | 94.6 | – | > 100 | – | – | – | – | – |
| c1ccc2c(c1)nnn2CNc1ccc(N2CCCCC2)cc1 | > 100 | – | > 100 µM | > 100 | – | – | – | – | – |
| COc1ccc(CN(CCN(C)C)c2ccccn2)cc1 (tested in a mixture with another compound) | > 100 | – | > 100 µM | > 100 | – | – | – | – | – |
| Nc1cn(C2OC(CC(c3ccccc3)(c3ccccc3)c3ccccc3)C(O)C2O)c(=O)[nH]c1=O (stereo not drawn) | 67.7 | 34.9 | 35.4 µM | > 100 | > 100 | – | – | – | – |
| NC(CCSCC(F)(F)F)C(=O)O (stereo not drawn) | > 100 | > 100 | > 100 µM | > 100 | – | – | – | – | – |
| Oc1ccc(-c2c3ccccc3c(-c3ccc(O)cc3)c3ccccc23)cc1 | > 100 | > 100 | > 100 µM | > 100 | – | – | – | – | – |
| CC(=O)c1ccc(N2C(=O)C3c4[nH]c5ccccc5c4C4CCC(C(C)(C)C)CC4C3C2=O)cc1 (stereo not drawn) | > 100 | 42.1 | 59.8 µM | 74.9 | – | – | – | – | – |
| C/C(=C1/N=C(c2cc([N+](=O)[O-])ccc2Cl)N(c2ccc(Br)cc2)C1=O)c1ccc(N(CCC#N)CCC#N)cc1C | > 100 | 92.3 | 27.2 µM | > 100 | > 100 | – | – | – | – |
| CC(C)OP(=O)(OC(C)C)C(=NCCO)NNc1ccc([N+](=O)[O-])cc1 | – | > 100 | > 100 µM | > 100 | – | – | – | – | – |
| COC1(OC)CC2C(=O)N(Cc3ccccc3)C1C(S(=O)(=O)c1ccccc1)C2C(C)S(=O)(=O)c1ccccc1 (stereo not drawn) | > 100 | > 100 | > 100 µM | > 100 | – | – | – | – | – |
| CC1CC(=O)Nc2ccc(Cl)cc2N1C(=O)CN1CCC(CCCCN(C)C)CC1 (stereo not drawn) | > 100 | – | > 100 µM | – | > 100 | – | – | – | – |
| Cc1ccc(S(=O)(=O)NC(=O)C2S(=O)(=O)OCCOS2(=O)=O)cc1 | – | > 100 | – | > 100 | > 100 | – | – | – | – |
| CCN(CC)CCNc1c2ccccc2nc2cccc([N+](=O)[O-])c12 | – | 0.0409 | 0.0935 µM and 0.0335 µM | 0.13 | 0.0332 | 0.0156 | 0.0107 | 0.0117 | 0.023 |
| CCOC(=O)/C(Br)=C1\OC(=O)c2ccccc2-c2ccccc21 | > 100 | > 100 | 61.7 µM | > 100 | > 100 | – | – | – | – |
| NCCOc1ccc(/C(=C(/Cl)c2ccccc2)c2ccccc2)cc1 | – | 23.8 | 27.1 µM | 25 | 26.3 | – | – | – | – |
| CCN(CC)CC1CCCCN1CC(=O)N1c2cc(Cl)ccc2NC(=O)CC1C (stereo not drawn) | – | > 100 | > 100 µM | > 100 | – | – | – | – | – |
